Columns and labels:
Assay type in all cases: cell-based
Pseudomonas aeruginosa = experiment: MIC against Gram-negative bacteria: Pseudomonas aeruginosa; conditions: for MIC against P. aeruginosa: Pseudomonas aeruginosa
Procedure, shortened: (§1)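 The recombinant human-originated EGF domain proteins were serially diluted two-fold against bacteria at 5×10^5 CFU/mL in LB medium. After shaken incubation at 37° C, the lowest concentration with no bacterial growth was recorded as the MIC.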

E. coli DH5α = experiment: Antibacterial activity: MIC and growth curve against E. coli DH5α in 96-well plate; conditions: minimal inhibitory concentration against E. coli DH5α; 96-well plate, 5×10^5 CFU/mL, 37° C., judged after 8 h
Procedure, shortened: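 Log-phase bacteria (OD600 ~0.5) resuspended in LB at 5×10^5 CFU/mL, exposed to recombinant protein at 50, 25, 12.5 μg/mL final in triplicate, 37 °C shaking at 175 rpm. OD600 read every 30 min; MIC is lowest concentration showing no growth.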

Enterobacter cloacae = experiment: MIC against Gram-negative bacteria: Enterobacter cloacae; conditions: for MIC against E. cloacae: Enterobacter cloacae
Procedure, shortened: as §1

Moraxella catarrhalis = experiment: MIC against Gram-negative bacteria: Moraxella catarrhalis; conditions: for MIC against M. catarrhalis: Moraxella catarrhalis
Procedure, shortened: as §1

Citrobacter diversus = experiment: MIC against Gram-negative bacteria: Citrobacter diversus; conditions: for MIC against C. diversus: Citrobacter diversus
Procedure, shortened: as §1

E. coli BL21 = experiment: MIC against Gram-negative bacteria: E. coli BL21
Procedure, shortened: as §1

Klebsiella pneumonia = experiment: MIC against Gram-negative bacteria: Klebsiella pneumonia; conditions: for MIC against K. pneumonia: Klebsiella pneumonia
Procedure, shortened: as §1

Proteus vulgaris = experiment: MIC against Gram-negative bacteria: Proteus vulgaris; conditions: for MIC against P. vulgaris: Proteus vulgaris
Procedure, shortened: as §1

Proteus mirabilis = experiment: MIC against Gram-negative bacteria: Proteus mirabilis; conditions: for MIC against P. mirabilis: Proteus mirabilis
Procedure, shortened: as §1

Serratia marcescens = experiment: MIC against Gram-negative bacteria: Serratia marcescens; conditions: for MIC against S. marcescens: Serratia marcescens
Procedure, shortened: as §1

Aeromonas hydrophila = experiment: MIC against Gram-negative bacteria: Aeromonas hydrophila; conditions: for MIC against A. hydrophila: Aeromonas hydrophila
Procedure, shortened: as §1

[1] = 96-well plate, 5×10^5 CFU/mL, 37° C., 10 h
[2] = E. coli BL21, 96-well plate, 5×10^5 CFU/mL, 37° C., 10 h
[3] = 5×10^5 CFU/mL, 10 h cultivation at 37° C.
[4] = 10 h cultivation at 37° C., 5×10^5 CFU/mL, two-fold serial dilution

PRT1258 (GRTCIETCAVNNGGCDRTCKDTATGVRCSCPVGFTLQPD; listed as Homo sapiens)
MIC against P. aeruginosa (Pseudomonas aeruginosa; [1]): 50 µg/mL | MIC (E. coli DH5α): 12.5 µg/mL | MIC against E. cloacae (Enterobacter cloacae; [1]): 12.5 µg/mL | MIC against M. catarrhalis (Moraxella catarrhalis; [1]): 12.5 µg/mL | MIC against C. diversus (Citrobacter diversus; [1]): 50 µg/mL | MIC against E. coli BL21 (E. coli BL21; [2]): 25 µg/mL | MIC against K. pneumonia (Klebsiella pneumonia; [1]): 25 µg/mL | MIC against P. vulgaris (Proteus vulgaris; [1]): 25 µg/mL | MIC against P. mirabilis (Proteus mirabilis; [1]): 50 µg/mL | MIC against S. marcescens (Serratia marcescens; [1]): 12.5 µg/mL | MIC against A. hydrophila (Aeromonas hydrophila; [1]): 25 µg/mL

PRT1008 (ELDACQSQPCHNHGTCTPKPGGFHCACPPGFVGLRCE; listed as Homo sapiens)
MIC (Pseudomonas aeruginosa; P. aeruginosa, 10 h cultivation at 37° C.): 12.5 µg/mL | MIC (E. coli DH5α): 50 µg/mL | MIC (Enterobacter cloacae; E. cloacae, 10 h cultivation at 37° C.): 50 µg/mL | MIC (Moraxella catarrhalis; M. catarrhalis, 10 h cultivation at 37° C.): 12.5 µg/mL | MIC (Citrobacter diversus; C. diversus, 10 h cultivation at 37° C.): 50 µg/mL | MIC (E. coli BL21; E. coli BL21, 10 h cultivation at 37° C.): 12.5 µg/mL | MIC (Klebsiella pneumonia; K. pneumonia, 10 h cultivation at 37° C.): 12.5 µg/mL | MIC (Proteus vulgaris; P. vulgaris, 10 h cultivation at 37° C.): 50 µg/mL | MIC (Proteus mirabilis; P. mirabilis, 10 h cultivation at 37° C.): 25 µg/mL | MIC (Serratia marcescens; S. marcescens, 10 h cultivation at 37° C.): 25 µg/mL | MIC (Aeromonas hydrophila; A. hydrophila, 10 h cultivation at 37° C.): 12.5 µg/mL

PRT1477 (DIDECSENMCAQLCVNYPGGYTCYCDGKKGFKLAQDQKSCE; listed as Homo sapiens)
MIC against P. aeruginosa (Pseudomonas aeruginosa; [3]): 50 µg/mL | MIC (E. coli DH5α): 50 µg/mL | MIC against E. cloacae (Enterobacter cloacae; [3]): 25 µg/mL | MIC against M. catarrhalis (Moraxella catarrhalis; [3]): 12.5 µg/mL | MIC against C. diversus (Citrobacter diversus; [3]): 25 µg/mL | MIC against E. coli BL21 (E. coli BL21; E. coli BL21, 5×10^5 CFU/mL, 10 h cultivation at 37° C.): 12.5 µg/mL | MIC against K. pneumonia (Klebsiella pneumonia; [3]): 12.5 µg/mL | MIC against P. vulgaris (Proteus vulgaris; [3]): 50 µg/mL | MIC against P. mirabilis (Proteus mirabilis; [3]): 25 µg/mL | MIC against S. marcescens (Serratia marcescens; [3]): 12.5 µg/mL | MIC against A. hydrophila (Aeromonas hydrophila; [3]): 50 µg/mL

PRT234 (DINECATLSKVSCGKFSDCWNTEGSYDCVCSPGYEPVSGAKTFKNESENTCQ; listed as Homo sapiens)
MIC (μg/mL) P. aeruginosa (Pseudomonas aeruginosa; P. aeruginosa, 10 h cultivation at 37° C., 5×10^5 CFU/mL): 25 µg/mL | MIC (E. coli DH5α): 25 µg/mL | MIC (μg/mL) E. cloacae (Enterobacter cloacae; E. cloacae, 10 h cultivation at 37° C., 5×10^5 CFU/mL): 25 µg/mL | MIC (μg/mL) M. catarrhalis (Moraxella catarrhalis; M. catarrhalis, 10 h cultivation at 37° C., 5×10^5 CFU/mL): 12.5 µg/mL | MIC (μg/mL) C. diversus (Citrobacter diversus; C. diversus, 10 h cultivation at 37° C., 5×10^5 CFU/mL): 25 µg/mL | MIC (μg/mL) E. coli BL21 (E. coli BL21; E. coli BL21, 10 h cultivation at 37° C., 5×10^5 CFU/mL): 50 µg/mL | MIC (μg/mL) K. pneumonia (Klebsiella pneumonia; K. pneumonia, 10 h cultivation at 37° C., 5×10^5 CFU/mL): 12.5 µg/mL | MIC (μg/mL) P. vulgaris (Proteus vulgaris; P. vulgaris, 10 h cultivation at 37° C., 5×10^5 CFU/mL): 12.5 µg/mL | MIC (μg/mL) P. mirabilis (Proteus mirabilis; P. mirabilis, 10 h cultivation at 37° C., 5×10^5 CFU/mL): 25 µg/mL | MIC (μg/mL) S. marcescens (Serratia marcescens; S. marcescens, 10 h cultivation at 37° C., 5×10^5 CFU/mL): 25 µg/mL | MIC (μg/mL) A. hydrophila (Aeromonas hydrophila; A. hydrophila, 10 h cultivation at 37° C., 5×10^5 CFU/mL): 12.5 µg/mL

PRT1287 (EPCRKLYCLHGICQPNATPGPMCHCEAGWVGLHCD; listed as Homo sapiens)
MIC against P. aeruginosa (Pseudomonas aeruginosa; [1]): 12.5 µg/mL | MIC (E. coli DH5α): 50 µg/mL | MIC against E. cloacae (Enterobacter cloacae; [1]): 12.5 µg/mL | MIC against M. catarrhalis (Moraxella catarrhalis; [1]): 50 µg/mL | MIC against C. diversus (Citrobacter diversus; [1]): 12.5 µg/mL | MIC against E. coli BL21 (E. coli BL21; [2]): 25 µg/mL | MIC against K. pneumonia (Klebsiella pneumonia; [1]): 50 µg/mL | MIC against P. vulgaris (Proteus vulgaris; [1]): 50 µg/mL | MIC against P. mirabilis (Proteus mirabilis; [1]): 12.5 µg/mL | MIC against S. marcescens (Serratia marcescens; [1]): 50 µg/mL | MIC against A. hydrophila (Aeromonas hydrophila; [1]): 50 µg/mL

PRT1153 (TVSTCDPEHDPPHHCSRGATCISLPHGYTCFCPLGTTGIYCE; listed as Homo sapiens)
MIC P. aeruginosa (Pseudomonas aeruginosa; [4]): 12.5 µg/mL | MIC (E. coli DH5α): 12.5 µg/mL | MIC E. cloacae (Enterobacter cloacae; [4]): 12.5 µg/mL | MIC M. catarrhalis (Moraxella catarrhalis; [4]): 12.5 µg/mL | MIC C. diversus (Citrobacter diversus; [4]): 25 µg/mL | MIC E. coli BL21 (E. coli BL21; [4]): 50 µg/mL | MIC K. pneumonia (Klebsiella pneumonia; [4]): 50 µg/mL | MIC P. vulgaris (Proteus vulgaris; [4]): 50 µg/mL | MIC P. mirabilis (Proteus mirabilis; [4]): 25 µg/mL | MIC S. marcescens (Serratia marcescens; [4]): 12.5 µg/mL | MIC A. hydrophila (Aeromonas hydrophila; [4]): 50 µg/mL

PRT1275 (EGMNCMNKNHGCAHICRETPKGGIACECRPGFELTKNQRDCK; listed as Homo sapiens)
MIC against P. aeruginosa (Pseudomonas aeruginosa; [1]): 12.5 µg/mL | MIC (E. coli DH5α): 12.5 µg/mL | MIC against E. cloacae (Enterobacter cloacae; [1]): 12.5 µg/mL | MIC against M. catarrhalis (Moraxella catarrhalis; [1]): 12.5 µg/mL | MIC against C. diversus (Citrobacter diversus; [1]): 50 µg/mL | MIC against E. coli BL21 (E. coli BL21; [2]): 50 µg/mL | MIC against K. pneumonia (Klebsiella pneumonia; [1]): 50 µg/mL | MIC against P. vulgaris (Proteus vulgaris; [1]): 25 µg/mL | MIC against P. mirabilis (Proteus mirabilis; [1]): 50 µg/mL | MIC against S. marcescens (Serratia marcescens; [1]): 12.5 µg/mL | MIC against A. hydrophila (Aeromonas hydrophila; [1]): 50 µg/mL

— patent US9833497B2, “Human originated EGF domain proteins and use of the same” (CHENGDU SOURCEBIO LIMITED-LIABILITY COMPANY, priority 2013, dated 2017)
